# How the values were obtained:
# [1] = tested on: maize; settings: in vivo; cited from earlier work
# [2] = tested on: rice; settings: in vivo; cited from earlier work
# [3] = tested on: green suspension cells; assay: Response of the green maize suspension to streptomycin and spectinomycin; format: cell-based
# [4] = tested on: PS-II electron transport; assay: Oxygen electrode determination of photosynthetic electron transport with diuron; format: cell-based, maize
# Protocol: The oxygen electrode was set up per manufacturer's instructions by covering the silver electrode with layers of KCl solution, cigarette paper, and PTFE gas permeable membrane. The circulating water bath used to maintain a constant temperature of 24° C. during the course of the experiments. An experiment was initiated by the addition of 1 mL of suspension containing 100 mg of the green suspension cells to the electrode chamber. Oxygen uptake within the chamber was limited by the insertion of a plunger to the level of the liquid, and the flea magnet was turned on to assure adequate mixing during each experiment. Data points were collected by LabVIEW 5.1 and sent to an EXCEL spreadsheet. Data points were collected at a rate of 0.2/sec over 70 scans. […]
# Photosynthetic electron transport was measured with an oxygen electrode in the absence and presence of diuron (DCMU), a PS-II electron transport inhibitor at several concentrations (Figure below). […] A light intensity of 225 μmol M^−2 S^−1 photosynthetic photon flux density was used to drive electron transport, and oxygen evolution was measured polarographically.
# Whether or not Diuron treatment lead to inhibition of oxygen was investigated using an oxygen electrode. To determine amount of photosynthesis occurring in the cells, respiration rates were measured with and without the exposure of the cells to a strong light source. […]
# [5] = tested on: Halophila ovalis; settings: 10 mg/l of Zn (153 μm); cited from earlier work
# [6] = tested on: Brassica juncea; settings: 100 mg Zn/l (1529 μm) added to soil mixtures; cited from earlier work
smiles,measurement,setting,value
"[Cu] [Cu, Copper]",No Observable Adverse Effect Level (tissue concentration that did not decrease top growth),[1],40 mg/kg
same,critical Cu toxicity level,[1],20 mg/kg
same,critical level of Cu,[1],21 mg/kg
same,critical Cu toxicity level,[2],20 mg/kg
[H]/N=C(/N)N[C@H]1[C@H](O)[C@@H](O)[C@H](O[C@@H]2O[C@@H](C)[C@](O)(C=O)[C@H]2O[C@@H]2O[C@@H](CO)[C@H](O)[C@@H](O)[C@@H]2NC)[C@@H](N/C(N)=N\[H])[C@@H]1O [Streptomycin],plants recovered when germinated in Streptomycin-containing medium,[3]; 62.5 mg/L,albino plants were recovered
same,bleaching of cells,[3]; 125 mg/L,fully bleached
same,plants recovered when germinated in Streptomycin-containing medium,[3]; 125 mg/l (FIG. 2 legend),albino plants were recovered
same,bleaching of cells,[3]; 250 mg/L (FIG. 2 legend),partially bleached
same,appearance of cells,[3]; 500 mg/L,excessive browning and necrosis
same,growth and appearance of green suspension cells,"[3]; 500 mg/l, after ~4 weeks","growth was inhibited, and the cells were bleached or browned and showed excessive necrosis"
CN(C)C(=O)Nc1ccc(Cl)c(Cl)c1 [diuron],concentration with greater effect of inhibiting the light reaction of photosynthesis,"[4]; 100 mg green suspension in 1 mL, illuminated, oxygen electrode",0.01 M
same,effect on light induced oxygen evolution,"[4]; green suspension, FIG. 4",cut down the light induced oxygen evolution
"[Zn] [Zn, Zinc]",total chlorophyll concentrations,[5],increase in total chlorophyll concentrations
same,phytotoxicity,[6],not phytotoxic
CN[C@@H]1[C@H](O)[C@H](NC)[C@H]2O[C@@]3(O)C(=O)C[C@@H](C)O[C@H]3O[C@@H]2[C@H]1O [spectinomycin],response of the green suspension,[3]; various spectinomycin concentrations,did not respond

# Source: patent US20050155119A1, “Chlorophyllous totipotent cell cultures” (Dow AgroSciences LLC, priority 2004, published 2005)
